Where two headings read alike, the source gives them in different places.
Tests used:
Staphylococcus aureus = assay: Post-antibiotic effect (PAE) in vitro, viable counts; conditions: Staphylococcus aureus ATCC 33591 (beta-lactam resistant)
Escherichia coli = assay: Aerobic agar-dilution AST of facultative anaerobes (MIC, checkerboard FIC); assay type: cell-based
Clostridium perfringens = assay: microbe, parasite or virus in culture; assay type: cell-based; conditions: for MIC vs clinical breakpoint (susceptibility): anaerobic (Table 17)
Streptococcus mutans = assay: Anaerobic agar-dilution AST (MIC, checkerboard FIC); assay type: cell-based; conditions: strain UA 159, anaerobic
Cutibacterium acnes = assay: as above; assay type: cell-based
Klebsiella pneumoniae = assay: Aerobic agar-dilution AST of facultative anaerobes (MIC, checkerboard FIC); assay type: cell-based
Acinetobacter baumannii = assay: as above; assay type: cell-based
[1] = system: Lactobacillus acidophilus; assay: AST (MIC) of beneficial or mutualistic facultative anaerobic bacteria; assay type: cell-based
[2] = system: facultative anaerobic pathogens; assay: microbe, parasite or virus in culture; assay type: cell-based
Clostridium septicum = assay: Anaerobic agar-dilution AST (MIC, checkerboard FIC); assay type: cell-based; conditions: for MIC vs clinical breakpoint (susceptibility): anaerobic (Table 17); for MIC: Clostridium septicum
Clostridioides difficile = assay: as above; assay type: cell-based; conditions: for MIC vs clinical breakpoint (susceptibility): anaerobic (Table 17)

C[C@@H]1O[C@@H]1P(=O)(O)O [F, fosfomycin sodium]
128 µg/mL: MIC (Cutibacterium acnes; Cutibacterium acnes)
1 µg/mL: MIC (Escherichia coli; ATCC25922, Escherichia coli ATCC 25922 (Table 15)) | MIC (Escherichia coli; Escherichia coli 846446)
8000 µg/mL: MIC (Escherichia coli; pH 8, Escherichia coli 25922, pH 8)
2 µg/mL: MIC (Escherichia coli; ATCC25922, strain ATCC 25922, aerobic) | MIC (Escherichia coli; strain 846446, aerobic) | MIC (Escherichia coli; strain 857021, aerobic) | MIC (Escherichia coli; strain 863678, aerobic) | MIC (Escherichia coli; strain 928017, aerobic) | MIC (Escherichia coli; strain 959117, aerobic) | MIC (Escherichia coli; strain 961128, aerobic)
0.5 h: PAE (Staphylococcus aureus; exposure μg/ml: F 16, D/S 1/19, V 4, F/D/S 4/0.25/4.75, F/D/S/V 2/0.125/2.38/0.5) | PAE (Staphylococcus aureus; exposure μg/ml: F 32, D/S 2/38, V 8, F/D/S 8/0.5/9,5, F/D/S/V 4/0.25/4.75/1) | PAE (Staphylococcus aureus; exposure μg/ml: F 64, D/S 4/64, V 16, F/D/S 16/1/19, F/D/S/V 8/0.5/9.5/2)
32000 µg/mL: MIC (Escherichia coli; pH 7, Escherichia coli 857021, pH 7) | MIC ([2]; Bacillus cereus, ATCC14579, pH 8, read-out: MIC)
16 µg/mL: MIC (Escherichia coli; Escherichia coli 976657) | MIC (Escherichia coli; strain 854566, aerobic) | MIC (Clostridium perfringens; Clostridium perfringens 12-117, anaerobic) | MIC (Clostridium perfringens; Clostridium perfringens, Clostridium perfringens 11-61, anaerobic) | MIC (Clostridium perfringens; Clostridium perfringens, strain 2-0246-4, anaerobic) | MIC (Clostridium perfringens; Clostridium perfringens, strain 11-50, anaerobic) | MIC (Clostridium perfringens; strain 12-117, anaerobic) | MIC (Streptococcus mutans) | MIC (Klebsiella pneumoniae; strain 875638, aerobic) | MIC (Klebsiella pneumoniae; strain 957464, aerobic) | MIC (Klebsiella pneumoniae; strain 957467, aerobic) | MIC (Klebsiella pneumoniae; strain 984643, aerobic) | MIC (Klebsiella pneumoniae; strain 993434, aerobic) | MIC (Klebsiella pneumoniae; strain 995460, aerobic) | MIC (Klebsiella pneumoniae; strain 1040205, aerobic) | MIC (Acinetobacter baumannii; strain 938781, aerobic, read-out: MIC) | MIC (Clostridium septicum; strain 11-3571, anaerobic) | MIC (Clostridioides difficile; Clostridioides difficile, Clostridioides difficile 10-3620-5, anaerobic) | MIC (Clostridioides difficile; Clostridioides difficile, strain 2-0247-4, anaerobic, read-out: MIC) | MIC (Clostridioides difficile; strain 10-3620-5, anaerobic)
4 µg/mL: MIC (Escherichia coli; Escherichia coli 854535) | MIC (Escherichia coli; strain 846450, aerobic) | MIC (Escherichia coli; strain 975811, aerobic) | MIC (Escherichia coli; strain 976657, aerobic) | MIC (Escherichia coli; strain 977941, aerobic) | MIC (Escherichia coli; strain 996332, aerobic) | MIC (Klebsiella pneumoniae; strain 892483, aerobic) | MIC (Klebsiella pneumoniae; strain 926439, aerobic)
4000 µg/mL: MIC (Escherichia coli; pH 8, Escherichia coli 857021, pH 8) | MIC ([2]; Bacillus cereus, pH 5, read-out: MIC)
2000 µg/mL: MIC (Escherichia coli; pH 5, Escherichia coli 857021, pH 5) | MIC (Escherichia coli; pH 7, Escherichia coli CDC-0089, pH 7) | MIC ([2]; Yersinia pseudotuberculosis, pH 5)
> 128 µg/mL: MIC (Acinetobacter baumannii) | MIC [1]
+: MIC vs clinical breakpoint (susceptibility) (Clostridium perfringens; Clostridium perfringens 2-0246-4) | MIC vs clinical breakpoint (susceptibility) (Clostridium perfringens; Clostridium perfringens 11-46) | MIC vs clinical breakpoint (susceptibility) (Clostridium perfringens; Clostridium perfringens 11-50) | MIC vs clinical breakpoint (susceptibility) (Clostridium perfringens; Clostridium perfringens 11-61) | MIC vs clinical breakpoint (susceptibility) (Clostridium perfringens; Clostridium perfringens 12-117) | MIC vs clinical breakpoint (susceptibility) (Cutibacterium acnes; Cutibacterium acnes 6609, anaerobic (Table 17)) | MIC vs clinical breakpoint (susceptibility) (Clostridium septicum; Clostridium septicum 11-3571) | MIC vs clinical breakpoint (susceptibility) (Clostridium septicum; Clostridium septicum 15-847) | MIC vs clinical breakpoint (susceptibility) (Clostridioides difficile; Clostridioides difficile 2-0247-4) | MIC vs clinical breakpoint (susceptibility) (Clostridioides difficile; Clostridioides difficile 3/8) | MIC vs clinical breakpoint (susceptibility) (Clostridioides difficile; Clostridioides difficile 10-3620-5)
64 µg/mL: MIC (Cutibacterium acnes; Cutibacterium acnes, Cutibacterium acnes 6609, anaerobic, read-out: MIC) | MIC (Cutibacterium acnes; strain 6609, anaerobic) | MIC (Klebsiella pneumoniae; Klebsiella pneumoniae 870964) | MIC (Klebsiella pneumoniae; Klebsiella pneumoniae 875638) | MIC (Klebsiella pneumoniae; strain 926456, aerobic) | MIC (Klebsiella pneumoniae; strain 939665, aerobic) | MIC (Acinetobacter baumannii; strain 918857, aerobic, read-out: MIC)
32 µg/mL: MIC (Clostridium perfringens; Clostridium perfringens, Clostridium perfringens 11-46, anaerobic) | MIC (Clostridium perfringens; Clostridium perfringens, Clostridium perfringens 12-117, anaerobic) | MIC (Clostridium perfringens; Clostridium perfringens, strain 12-117, anaerobic) | MIC (Cutibacterium acnes; Cutibacterium acnes, strain 6609, anaerobic, read-out: MIC) | MIC (Klebsiella pneumoniae; strain 848788, aerobic) | MIC (Klebsiella pneumoniae; strain 857147, aerobic) | MIC (Clostridium septicum; strain 15-847, anaerobic) | MIC (Clostridioides difficile; Clostridioides difficile, Clostridioides difficile 3/8, anaerobic, read-out: MIC) | MIC (Clostridioides difficile; strain 2-0247-4, anaerobic)
8 µg/mL: MIC (Escherichia coli; strain 863696, aerobic) | MIC (Clostridium perfringens; Clostridium perfringens, Clostridium perfringens 11-50, anaerobic) | MIC (Clostridium perfringens; strain 2-0246-4, anaerobic) | MIC (Clostridium perfringens; strain 11-50, anaerobic) | MIC (Klebsiella pneumoniae; strain 868968, aerobic) | MIC (Klebsiella pneumoniae; strain 869028, aerobic) | MIC (Klebsiella pneumoniae; strain 870964, aerobic) | MIC (Acinetobacter baumannii; strain 843978, aerobic, read-out: MIC) | MIC (Acinetobacter baumannii; strain 919656, aerobic, read-out: MIC) | MIC (Acinetobacter baumannii; strain 919899, aerobic, read-out: MIC) | MIC (Acinetobacter baumannii; strain 1049160, aerobic, read-out: MIC) | MIC (Clostridioides difficile; Clostridioides difficile, strain 10-3620-5, anaerobic, read-out: MIC)
64000 µg/mL: MIC (Escherichia coli; pH 8, Escherichia coli CDC-0089, pH 8) | MIC (Klebsiella pneumoniae; pH 5, Klebsiella pneumoniae 848788, pH 5) | MIC (Acinetobacter baumannii; pH 7, Acinetobacter baumannii 918857, pH 7, read-out: MIC) | MIC ([2]; Bacillus cereus, ATCC14579, pH 7, read-out: MIC) | MIC ([2]; Bacillus subtilis, pH 5, read-out: MIC) | MIC ([2]; Yersinia pseudotuberculosis, ATCC6905, pH 7)

Source: patent US20230398101A1, “Co-agents as Therapy Against Anaerobic Pathogens” (priority 2022, published 2023)
